The values that follow come from patent US6958345B2, “2-hydroxymethylcyclopropylidene methylpurines and -pyrimidines as antiviral agents” (The Regents of the University of Michigan, priority 1997, dated 2005).

Data set [1] concerns HCMV. Put plainly: HCMV plaque reduction assay in HFF cells. It is filed as cell-based, Human CMV (HCMV). Conditions: for pIC50: HFF cells, plaque reduction. On the procedure:
(§1) Cells and viruses. The routine growth and passage of KB cells was performed in monolayer cultures using minimal essential medium (MEM) with either Hanks salts [MEM(H)] or Earle salts [MEM(E)] supplemented with 10% calf serum. The sodium bicarbonate concentration was varied to meet the buffering capacity required. Cultures of diploid human foreskin fibroblasts (HFF) or MRC-5 cells were grown in medium consisting of MEM(E) with 10% fetal bovine serum. Cells were passaged at 1:2 to 1:10 dilutions according to conventional procedures by using 0.05% trypsin plus 0.02% EDTA in a HEPES buffered salt solution (HBS) (Shipman, C., Jr., Proc. Soc. Exp. Biol. 130:305-310 (1969)) as described previously. Turk, S. R., et al., Antimicrob. Agents Chemother. 31:544-550 (1987). HFF and MRC-5 cells were passaged only at 1:2 dilutions. CEM cells were maintained in suspension culture as detailed previously. Kucera, L. S., et al., AIDS Res. Human Retroviruses 9:307-314 (1993).
(§2) Virological procedures. Stock HCMV was prepared by infecting HFF cells at a multiplicity of infection (m.o.i.) of <0.01 plaque-forming units (p.f.u.) per cell. Cell growth medium was changed every four days until cytopathology was evident in all cells (approximately 21 days). Supernatant fluids were retained as the virus stock. High titer HSV-1 stocks were prepared by infecting KB cells at an m.o.i. of <0.1 as detailed previously. Turk, S. R., et al., Antimicrob. Agents Chemother. 31:544-550 (1987). Virus titers were determined using monolayer cultures of HFF cells for HCMV and monolayer cultures of BSC-1 cells for HSV-1 as described earlier. Prichard, M. N., et al., J. Virol. Methods 28:101-106 (1990). Briefly, HFF or BSC-1 cells were planted as described above in 96-well cluster dishes and incubated overnight at 37° C. in a humidified 3% CO297% air atmosphere. The next day cultures were inoculated with HCMV or HSV-1 and serially diluted 1:3 across the remaining eleven columns of the 96-well plate. Cultures were incubated at 37° C. for 2 hr to permit virus adsorption and then virus inoculum was replaced with 0.2 mL of fresh medium. Cultures were incubated for seven days for HCMV, two or three days for HSV-1, medium was removed, and the cell sheets were stained with 0.1% crystal violet in 20% methanol. Plaques were enumerated under 20-fold magnification in wells having the dilution which gave 5 to 20 plaques per well. Virus titers were calculated according to the following Formula: Titer (p.f.u./mL)=number of plaques×5×3^n; where n represents the nth dilution of the virus used to infect the well in which plaques were enumerated.
(a) HCMV. The effect of compounds on the replication of HCMV has been measured using a plaque reduction assay. HFF cells in 24-well cluster dishes were infected with approximately 100 p.f.u. of HCMV per cm^2 cell sheet using the procedures detailed above. Following virus adsorption, compounds dissolved in growth medium were added to duplicate wells in three to six selected concentrations. Following incubation at 37° C. for 7 to 10 days, cell sheets were fixed, stained with crystal violet and microscopic plaques enumerated as described above. Drug effects were calculated as a percentage of reduction in number of plaques in the presence of each drug concentration compared to the number observed in the absence of drug. Ganciclovir (DHPG) was used as a positive control in all experiments.
(§3) Data Analysis. Dose-response relationships were constructed by linearly regressing the percent inhibition of parameters derived in the preceding sections against log drug concentrations. Fifty-percent inhibitory (IC50) concentrations were calculated from the regression lines. Samples containing positive controls (acyclovir for HSV-1, ganciclovir for HCMV, and 2-acetylpyridine thiosemicarbazone for cytotoxicity) were used in all assays.
(In general: In a plaque reduction assay, fewer plaques than in the control indicate reduced infectivity or spread.)

Data set [2] has as its system HSV-1. Put plainly: HSV-1 ELISA in BSC-1 cells. It is filed as cell-based, herpes simplex 1 (HSV-1). To be noted: for pIC50: ELISA. On the procedure:
as §2
(b) HSV-1. An enzyme-linked immunosorbent assay (ELISA) was employed to detect HSV-1. 96-well cluster dishes were planted with BSC-1 cells at 10,000 cells per well, in a total volume of 200 μL per well of MEM(E) plus 10% calf serum. After overnight incubation at 37° C., drug and HSV-1 was added at the rate of 100 PFU/well. ELISA plates were blocked with 200 μL per well of 10% calf serum and 0.05% tween in HBS. After incubation for 30 minutes, the blocking agent was rinsed two times with HBS-T. A 1:400 dilution of AP conjugated rabbit anti-HSV-1 antibody in HBS-F was added. Plates were sealed with adhesive sheet, and incubated on rocker for one hour at 37° C. Plates were developed in the dark with 100 μL per well of substrate solution containing p-nitrophenyl phosphate. Plates were read at […]. Drug effects were calculated as a percentage of the reduction in virus in the presence of each drug concentration compared to the titer obtained in the absence of drug. Acyclovir was used as a positive control in all experiments.
as §3

Data set [3] has as its system HIV-1. Put plainly: HIV-1 reverse transcriptase assay in infected CEM cells. It is filed as cell-based, strain IIIB of HIV-1. On the procedure:
(d) HIV-1. Reverse transcriptase (RT) was employed as a marker for HIV-1. This assay measured the presence of HIV in supernatants of CEM cells infected with strain IIIB of HIV-1 by the amount of RT activity. Cells were grown, infected, and incubated in the presence of seven concentrations (one-half log10 dilutions) beginning at 1 or 100 μM of compounds to be assayed. Procedures and the RT assay were performed as detailed previously. Kucera, L. S., et al., AIDS Res. Human Retroviruses 9:307-314 (1993); White, E. L., et al., Antiviral Res. 16:257-266 (1991).

Data set [4] relates to HFF cells. Put plainly: Cytotoxicity in stationary HFF cells, microscopic inspection. It is filed as cell-based, human. On the procedure: as §1
(§4) Cytotoxicity assays. Two different assays were used to explore cytotoxicity of selected compounds as we have detailed previously. (i) Cytotoxicity produced in stationary HFF cells and in growing CEM cells was determined by microscopic inspection of cells used in plaque and RT assays which were not affected by the virus. Turk, S. R., et al., Antimicrob. Agents Chemother. 31:544-550 (1987). (ii) The effect of compounds during two population doublings of KB cells was determined by crystal violet staining and spectrophotometric quantitation of dye eluted from stained cells. Prichard, M. N., et al., Antimicrob. Agents Chemother. 35:1060-1065 (1991).
as §3

In data set [5] the test system is KB cells. The experiment in a line: Cytotoxicity in KB cells, growth over two population doublings. Type of data set: cell-based. On the procedure: as §1, §4, §3
The subject of data set [6] is CEM cells. The experiment in a line: Cytotoxicity in growing CEM cells, microscopic inspection. Type of data set: cell-based. On the procedure: as §1, §4, §3
The mark [7] stands for this setting: Example 26, listed as R-1 (B = 2-amino-6-methoxy-purine), Example 22.
The mark [8] stands for this setting: Example 26, listed as S-1 (B = 2-amino-6-methoxy-purine), Example 22.
The mark [9] stands for this setting: reverse transcriptase assay, CEM cells, low moi (footnote c of the 5th table), read-out: HIV-1, IC50.
The mark [10] stands for this setting: KB cell growth, read-out: Cytotoxicity IC50 KB (growth).
[11] abbreviates: Example 26, high multiplicity of infection (moi), read-out: HIV-1 IC50, reverse transcriptase assay.

pIC50: −log10 of the molar value. Where two headings read alike, the source gives them in different places.

With `COc1nc(N)nc2c1ncn2C=C1CC1CO` (stereo not drawn) [listing 1 of 2 here], the pIC50 is less than 4.00 in data set [1] (setting [7]); less than 4.00 in data set [2] (setting [7]); less than 4.00 in data set [3] (Example 26, high multiplicity of infection (moi), listed as R-1 (B = 2-amino-6-methoxy-purine), Example 22, read-out: HIV-1 IC50, reverse transcriptase assay); less than 4.00 in data set [4]; less than 4.00 in data set [5]; less than 4.00 in data set [6].
With `COc1nc(N)nc2c1ncn2C=C1CC1CO` (stereo not drawn) [listing 2 of 2 here], the pIC50 in data set [1] (setting [8]) was 5.60; in data set [2] (setting [8]) it was 4.70; in data set [3] (Example 26, high multiplicity of infection (moi), listed as S-1 (B = 2-amino-6-methoxy-purine), Example 22, read-out: HIV-1 IC50, reverse transcriptase assay) it was 4.38.
Take `COC(=O)[C@H](C)NP(=O)(OCC1CC1=Cn1cnc2c(N)nc(N)nc21)Oc1ccccc1` (stereo partly drawn) [3 (B = 2,6-diaminopurine), Example 15, Methyl Phenylphosphoro-L-alaninate of syn-2,6-diamino-N^9-(2-Hydroxycyclopropylidene-methyl)purine]: the pIC50 in data set [1] was 5.40; in data set [2] (BSC-1 cells) it was 4.30; in data set [3] (setting [9]) it was 6.59; in data set [4] (stationary HFF cells, visual, read-out: Cytotoxicity IC50 HFF (visual)), less than 4.00; in data set [5] (setting [10]), 4.40.
Turning to `COC(=O)[C@H](C)NP(=O)(OCC1CC1=Cn1cnc2c(N)ncnc21)Oc1ccccc1` (stereo partly drawn) [4 (B = adenine), Example 14, Methyl Phenylphosphoro-L-alaninate of anti-N^9-(2-Hydroxymethylcyclopropylidenemethyl)adenine], the pIC50 is 4.68 in data set [1]; 4.19 in data set [2] (BSC-1 cells); 5.80 in data set [3] (setting [9]); 4.30 in data set [5] (setting [10]); 4.18 in data set [6] (growing CEM cells, visual, read-out: Cytotoxicity IC50 CEM (visual)).
Consider `Nc1nc(N)c2ncn(C=C3CC3CO)c2n1` (stereo not drawn) [R-1 (B = 2,6-diaminopurine), Example 22], for which the pIC50 in data set [1] (Example 26), in data set [2] (Example 26), in data set [3] (setting [11]), in data set [4], in data set [5] and in data set [6] was less than 4.00 in each case.
As to `Nc1nc(Cl)c2ncn(C=C3CC3CO)c2n1` (stereo not drawn) [R-1 (B = 2-amino-6-chloropurine), Example 22], the pIC50 in data set [1] (Example 26) is 4.52; in data set [2] (Example 26), less than 4.00; in data set [3] (setting [11]), less than 4.00; in data set [4] it was 4.49; in data set [5], less than 4.00; in data set [6], less than 4.00.
For the compound `Nc1nc(NC2CC2)c2ncn(C=C3CC3CO)c2n1` (stereo not drawn) [R-1 (B = 2-aminopurine-6-cyclo-propylaminopurine), Example 2], the pIC50 in data set [1] (Example 26), in data set [2] (Example 26), in data set [3] (setting [11]), in data set [4], in data set [5] and in data set [6] was less than 4.00 each time.
For `Nc1ncnc2c1ncn2/C=C1/C[C@H]1CO` [R-1 (B = adenine), Example 23, (R)-(−)-Synadenol], the pIC50 in data set [1] (Example 26) is 5.54; in data set [2] (Example 26) it was 4.42; in data set [3] (setting [11]), 5.15; in data set [4] it was less than 4.00; in data set [5] it was less than 4.00; in data set [6] it was less than 4.00.
With `Nc1nc2c(ncn2C=C2CC2CO)c(=O)[nH]1` (stereo not drawn) [R-1 (B = guanine), Example 22], the pIC50 in data set [1] (Example 26), in data set [2] (Example 26), in data set [3] (setting [11]), in data set [4], in data set [5] and in data set [6] was less than 4.00 in each case.
On to `Nc1nc(N)c2ncn(C=C3CC3CO)c2n1` (stereo not drawn) [S-1 (B = 2,6-diaminopurine), Example 22], for which the pIC50 is 4.68 in data set [1] (Example 26); less than 4.00 in data set [2] (Example 26); less than 4.00 in data set [3] (setting [11]); 4.68 in data set [4]; less than 4.00 in data set [5]; less than 4.00 in data set [6].
On to `Nc1nc(Cl)c2ncn(C=C3CC3CO)c2n1` (stereo not drawn) [S-1 (B = 2-amino-6-chloropurine), Example 22], for which the pIC50 in data set [1] (Example 26) is 5.74; in data set [2] (Example 26), 4.35; in data set [3] (setting [11]), less than 4.00; in data set [4] it was less than 4.00; in data set [5], less than 4.00; in data set [6] it was less than 4.00.
`Nc1nc(NC2CC2)c2ncn(C=C3CC3CO)c2n1` (stereo not drawn) [S-1 (B = 2-aminopurine-6-cyclo-propylaminopurine), Example 2]: the pIC50 in data set [1] (Example 26) was 5.74; in data set [2] (Example 26) it was 4.70; in data set [3] (setting [11]), 4.19; in data set [4], less than 4.00; in data set [5], less than 4.00; in data set [6], less than 4.00.
Take `Nc1ncnc2c1ncn2/C=C1/C[C@@H]1CO` [S-1 (B = adenine), Example 24, (S)-(+)-Synadenol]: the pIC50 in data set [1] (Example 26) is 5.62; in data set [2] (Example 26) it was 5.06; in data set [3] (setting [11]), 5.92; in data set [4] it was 4.00; in data set [5] it was 4.10; in data set [6], less than 4.00.
With `COc1nc(N)nc2c1ncn2C=C1CC1CO` (stereo not drawn) [syn-2-Amino-6-methoxy-N^9-(2-hydroxymethyl-cyclopropylidenemethyl)purine], the pIC50 in data set [1] (Example 26) is 5.51; in data set [2] (Example 26), 4.48; in data set [3] (setting [11]) it was less than 4.00. In addition, in data set [1] (racemic analogues, Example 26), the “activity against HCMV (in words)” value is “good activity”. Besides, the “activity against HSV-1 (in words)” value in data set [2] (Example 26) was “significant activity”.

What is called pIC50 is the IC50 on a negative log10 scale, so that one unit is a factor of ten.
